The structures appear in SMILES notation. A value given as a limit tells only on which side of the number the result lay.

For this test, the target named is PIK3CA (human) (UniProt P42336). The test is described as follows: Inhibition of PIK3CA Kinase Activity.
PIK3CA (human), sequence (P42336 whole entry, looked up): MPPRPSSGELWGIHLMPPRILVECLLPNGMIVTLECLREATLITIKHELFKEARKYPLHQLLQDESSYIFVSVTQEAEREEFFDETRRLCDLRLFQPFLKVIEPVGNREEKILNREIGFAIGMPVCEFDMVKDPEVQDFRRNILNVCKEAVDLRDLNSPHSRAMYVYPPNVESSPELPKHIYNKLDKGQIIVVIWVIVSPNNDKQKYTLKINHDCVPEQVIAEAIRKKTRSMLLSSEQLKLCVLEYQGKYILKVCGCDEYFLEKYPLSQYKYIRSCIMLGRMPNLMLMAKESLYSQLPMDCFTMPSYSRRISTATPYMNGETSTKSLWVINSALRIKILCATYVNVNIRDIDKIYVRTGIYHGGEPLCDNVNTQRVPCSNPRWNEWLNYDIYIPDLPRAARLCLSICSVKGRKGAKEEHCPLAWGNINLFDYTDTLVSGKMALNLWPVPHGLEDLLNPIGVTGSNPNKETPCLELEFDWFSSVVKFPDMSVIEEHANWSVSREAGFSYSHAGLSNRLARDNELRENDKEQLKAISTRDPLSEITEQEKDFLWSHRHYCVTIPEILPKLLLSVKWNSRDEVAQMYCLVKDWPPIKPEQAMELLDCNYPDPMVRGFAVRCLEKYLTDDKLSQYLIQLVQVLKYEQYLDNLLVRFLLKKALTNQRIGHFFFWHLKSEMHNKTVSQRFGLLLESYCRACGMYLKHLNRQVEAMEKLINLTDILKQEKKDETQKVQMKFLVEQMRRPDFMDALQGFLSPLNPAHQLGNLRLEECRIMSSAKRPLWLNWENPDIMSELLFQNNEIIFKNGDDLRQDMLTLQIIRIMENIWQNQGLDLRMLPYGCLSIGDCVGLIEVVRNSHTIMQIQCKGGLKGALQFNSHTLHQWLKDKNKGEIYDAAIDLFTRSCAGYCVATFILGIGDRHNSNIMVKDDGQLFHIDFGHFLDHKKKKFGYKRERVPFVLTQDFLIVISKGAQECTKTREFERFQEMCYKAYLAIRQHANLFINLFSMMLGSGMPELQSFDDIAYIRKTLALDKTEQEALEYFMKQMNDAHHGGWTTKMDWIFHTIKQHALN
As usually defined, the IC50 is the concentration that gives 50% inhibition. A lower IC50 goes with greater potency in that assay. Turning to `CC1(C)CCc2ncnc(N3CCOc4ccc(-c5cnc(N)c(S(=O)(=O)NC6CC7CCC(C6)N7)c5)cc4C3)c2C1` (stereo not drawn), the IC50 lay within 50 to 250 nM. Then `Cn1c(N)nc2cc(-c3ccc4c(c3)CN(c3ccnc5ccccc35)CCO4)ccc21`, with 250 to 1000 nM; and `Cc1nc2ncc(-c3ccc4c(c3)CN(c3nc(CNC(C)C)nc5c3CC(C)(C)CC5)CCO4)cc2[nH]1`, with not above 10 nM; and `CC1=C(C)C(C)(C)Cc2c1ncnc2N1CCOc2ccc(-c3cnc4nc(C)[nH]c4c3)cc2C1`, with 10 to 50 nM. Under `CC[C@H]1CCc2c(ncnc2N2CCOc3ccc(-c4cnc(N)c(S(=O)(=O)N5C[C@@H]6C[C@H]5CN6)c4)cc3C2)C1` stands 10 to 50 nM.

For the compound `Cc1nc2ccc(-c3ccc4c(c3)CN(c3nc(CNC5CCC5)nc5c3CC(C)(C)CC5)CCO4)cc2[nH]1`, the IC50 lay within 10 to 50 nM. Then `COc1ccc2c(N3CCOc4ccc(-c5cnc(N)s5)cc4C3)nc(C)nc2c1`, with not above 10 nM. `Cc1nc2cc(-c3ccc4c(c3)CN(c3nc(CN(C)C)nc5c3CC(C)(C)CC5)CCO4)c(F)cc2[nH]1`: the IC50 lay in the range of 50 to 250 nM. In the case of `Cc1nc2ccc(-c3ccc4c(c3)CN(c3ncnc(C)c3Cc3cccc(Cl)c3)CCO4)cc2[nH]1`, the IC50 lay within 10 to 50 nM. For `CC1(C)C=Cc2ncnc(N3CCOc4ccc(-c5cnc6nc(C7CC7)[nH]c6c5)cc4C3)c2C1`, the IC50 was 10 to 50 nM.

`COC(=O)Nc1nc2ccc(-c3ccc4c(c3)CN(c3ncccc3C)CCO4)cc2[nH]1` had an IC50 of 50 to 250 nM. In the case of `CCNc1nc2ccc(-c3ccc4c(c3)CN(c3ncnc5c3CC(C)(C)CC5)CCO4)cc2[nH]1`, the IC50 was 10 to 50 nM. Then `CCNCc1nc2c(c(N3CCOc4ccc(-c5cnc6nc(C)[nH]c6c5)cc4C3)n1)CC(C)(C)CC2`, with not above 10 nM. Under `Cc1nc2ccc(-c3ccc4c(c3)CN(c3nc(CN5CC[C@H](F)C5)nc5c3CC(C)(C)CC5)CCO4)cc2[nH]1` stands 10 to 50 nM; under `Cc1cccc(Cc2c(C)ncnc2N2CCOc3ccc(-c4ccc5nc(C)[nH]c5c4)cc3C2)c1`, 50 to 250 nM; under `Cc1nc2ccc(-c3ccc4c(c3)CN(c3ncnc5ccc(I)cc35)CCO4)cc2[nH]1`, 50 to 250 nM. Under `CC1(C)CCc2ncnc(N3CCOc4ccc(-c5cnc(N)c(S(N)(=O)=O)c5)cc4C3)c2C1` stands not above 10 nM. As to `CCN(C)Cc1nc2c(c(N3CCOc4ccc(-c5cnc6nc(C)[nH]c6c5)cc4C3)n1)CC(C)(C)CC2`, the IC50 is not above 10 nM. In the case of `Cc1nc2ccc(-c3ccc4c(c3)CN(c3nc(CNCCF)nc5c3CC(C)(C)CC5)CCO4)cc2[nH]1`, the IC50 is not above 10 nM. The compound `CCSc1nc2c(c(N3CCOc4ccc(-c5ccc6nc(C)[nH]c6c5)cc4C3)n1)CCC2` registered an IC50 of 250 to 1000 nM. Under `CCc1nc2ncc(-c3ccc4c(c3)CN(c3nc(C)nc5c3CC(C)(C)CC5)CCO4)cc2[nH]1` stands 10 to 50 nM; under `Cc1ncc(-c2ccc3c(c2)CN(c2ncnc4c2CC(C)(C)CC4)CCO3)cc1NS(C)(=O)=O`, 10 to 50 nM.

`CC1(C)CCc2ncnc(N3CCOc4ccc(-c5cnc(N)c(S(=O)(=O)NCC6CCCNC6)c5)cc4C3)c2C1` (stereo not drawn) came in with an IC50 of 10 to 50 nM. Under `Cc1nc(N)sc1-c1ccc2c(c1)CN(c1ncnc3c1CCC(C)(C)C3)CCO2` stands 50 to 250 nM. Take `CC(C)(CN)CNS(=O)(=O)c1cc(-c2ccc3c(c2)CN(c2ncnc4c2CC(C)(C)CC4)CCO3)cnc1N`: the IC50 lay in the range of 50 to 250 nM.

Compound `CCCOc1ccc2ncnc(N3CCOc4ccc(-c5ccc6nc(C)[nH]c6c5)cc4C3)c2c1` returned an IC50 of 250 to 1000 nM.

Compound `Cc1nc2ncc(-c3ccc4c(c3)CN(c3ncnc(NC(C)C)c3C)CCO4)cc2[nH]1` gave an IC50 of 10 to 50 nM.

Consider `CCN(Cc1nc2c(c(N3CCOc4ccc(-c5cnc6nc(C)[nH]c6c5)cc4C3)n1)CC(C)(C)CC2)C(C)C`, for which the IC50 lay within 10 to 50 nM. `Cc1nc2ccc(-c3ccc4c(c3)CN(c3ncnc(C)c3C(C)c3cccc(F)c3)CCO4)cc2[nH]1` (stereo not drawn) registered an IC50 not above 10 nM.

`CC1(C)CCc2ncnc(N3CCOc4ccc(-c5cnc(N)c(S(C)(=O)=O)c5)cc4C3)c2C1` yielded an IC50 of 10 to 50 nM. Then `COC(=O)Nc1nc2ncc(-c3ccc4c(c3)CN(c3ccnc5cc(OC)c(OC)cc35)CCO4)cc2[nH]1`, with 10 to 50 nM; and `CCNc1nc2ccc(-c3ccc4c(c3)CN(c3cc(C)nc5cc(OC)ccc35)CCO4)cc2[nH]1`, with not above 10 nM; and `CCNc1nc2ccc(-c3ccc4c(c3)CN(c3cc(Nc5ccccc5)ncn3)CCO4)cc2[nH]1`, with 50 to 250 nM. For the compound `Cc1c(NC2CCN(C)CC2)ncnc1N1CCOc2ccc(-c3cnc4nc(C5CC5)[nH]c4c3)cc2C1`, the IC50 lay within 10 to 50 nM. In turn, `COCCOCc1nc2c(c(N3CCOc4ccc(-c5ccc6nc(C)[nH]c6c5)cc4C3)n1)CC(C)(C)CC2` yielded an IC50 of 50 to 250 nM. Compound `Cc1nc2ncc(-c3ccc4c(c3)CN(c3nc(CN5CCOCC5)nc5c3CC(C)(C)CC5)CCO4)cc2[nH]1` had an IC50 of 10 to 50 nM. Then `Cc1nc2ccc(-c3ccc4c(c3)CN(c3ncnc5ccc(Br)cc35)CCO4)cc2[nH]1`, with 50 to 250 nM; and `CC(=O)OCc1nc2c(c(N3CCOc4ccc(-c5cnc6nc(C)[nH]c6c5)cc4C3)n1)CC(C)(C)CC2`, with 10 to 50 nM; and `COc1ncc(-c2ccc3c(c2)CN(c2ncnc4c2CC(C)(C)CC4)CCO3)cc1NS(C)(=O)=O`, with not above 10 nM. Under `CN1C[C@@H]2C[C@H]1CN2S(=O)(=O)c1cc(-c2ccc3c(c2)CN(c2ncnc4c2CC(C)(C)CC4)CCO3)cnc1N` stands 50 to 250 nM; under `CC1(C)CCc2ncnc(N3CCOc4ccc(-c5cnc(N)c(S(=O)(=O)N6CC7(CNC7)C6)c5)cc4C3)c2C1`, 10 to 50 nM; under `CCc1c(C)ncnc1N1CCOc2ccc(-c3cnc4nc(C)[nH]c4c3)cc2C1`, 50 to 250 nM. Then `CC1=CC(C)(C)Cc2c1ncnc2N1CCOc2ccc(-c3cnc4nc(C)[nH]c4c3)cc2C1`, with 10 to 50 nM; and `CC1(C)CCc2ncnc(N3CCOc4ccc(-c5cnc(N)c(S(=O)(=O)N6CCC6)c5)cc4C3)c2C1`, with 10 to 50 nM; and `COc1ccc2c(N3CCOc4ccc(-c5cnc6[nH]ccc6c5)cc4C3)nc(C)nc2c1`, with 50 to 250 nM.

`Cc1nc(N2CCOc3ccc(-c4ccc(N)nc4)cc3C2)c2ccccc2n1` displayed an IC50 of 250 to 1000 nM. Under `CN(C)c1nc2ccc(-c3ccc4c(c3)CN(c3ccnc5ccccc35)CCO4)cc2[nH]1` stands 250 to 1000 nM; under `Cc1nc2ncc(-c3ccc4c(c3)CN(c3ncnc5c3CC(C)(C)CC5)CCO4)cc2[nH]1`, 10 to 50 nM. Then `CC1(C)CCc2ncnc(N3CCOc4ccc(-c5cnc(N)c(S(=O)(=O)N6CCCC(N)C6)c5)cc4C3)c2C1` (stereo not drawn), with 50 to 250 nM; and `Cc1nc2ncc(-c3ccc4c(c3)CN(c3nc(CN5CCCCC5)nc5c3CC(C)(C)CC5)CCO4)cc2[nH]1`, with not above 10 nM; and `CN(C)C(=O)c1cc(-c2ccc3c(c2)CN(c2ncnc4c2CC(C)(C)CC4)CCO3)cnc1N`, with 250 to 1000 nM. Regarding `Cc1ncnc(N2CCOc3ccc(-c4cnc5nc[nH]c5c4)cc3C2)c1Cc1ccc(F)cc1`, the IC50 fell in the range of 10 to 50 nM. Compound `Cc1nc2ccc(-c3ccc4c(c3)CN(c3nc(CN(C)C)nc(C)c3C)CCO4)cc2[nH]1` showed an IC50 of 10 to 50 nM. In turn, `COc1cccc(Cc2c(C)ncnc2N2CCOc3ccc(-c4ccc5nc(C)[nH]c5c4)cc3C2)c1` returned an IC50 of 10 to 50 nM. Then `CCNc1nc2ccc(-c3ccc4c(c3)CN(c3nc(C)nc5ccccc35)CCO4)cc2[nH]1`, with 10 to 50 nM. Compound `COc1ccc2c(N3CCOc4ccc(-c5cnc6sc(N)nc6c5)cc4C3)nc(C)nc2c1` returned an IC50 not above 10 nM. Consider `CC1CCc2c(ncnc2N2CCOc3ccc(-c4cnc5nc(N)[nH]c5c4)cc3C2)C1` (stereo not drawn), for which the IC50 was not above 10 nM. For `CC1(C)CCc2ncnc(N3CCOc4ccc(-c5cnc(N)c(S(=O)(=O)CCCO)c5)cc4C3)c2C1`, the IC50 fell in the range of 10 to 50 nM. The compound `COc1ccc2c(N3CCOc4ccc(-c5cnc6[nH]cnc6c5)cc4C3)nc(CN(C)C)nc2c1` gave an IC50 not above 10 nM. `Cc1nc2ccc(-c3ccc4c(c3)CN(c3ncnc(C)c3Cc3cc(F)cc(Cl)c3)CCO4)cc2[nH]1` displayed an IC50 of 10 to 50 nM. Take `Cc1nc2ccc(-c3ccc4c(c3)CN(c3ncnc5c(Cl)cc(Cl)cc35)CCO4)cc2[nH]1`: the IC50 is 250 to 1000 nM. Under `CC1(C)CCc2ncnc(N3CCOc4ccc(-c5cnc(N)c(S(=O)(=O)N6CCNCC6)c5)cc4C3)c2C1` stands 50 to 250 nM; under `CC1(C)CCc2ncnc(N3CCOc4ccc(-c5cnc(N)c(S(=O)(=O)N6CCC(O)C6)c5)cc4C3)c2C1` (stereo not drawn), 10 to 50 nM; under `COC(=O)Nc1nc2ccc(-c3ccc4c(c3)CN(c3ccncn3)CCO4)cc2[nH]1`, 250 to 1000 nM. As to `CC1=CC(C)(C)Cc2c1ncnc2N1CCOc2ccc(-c3cnc(N)c(S(=O)(=O)N4CC[C@@H](N)C4)c3)cc2C1`, the IC50 was 50 to 250 nM. Then `Cc1nc2ccc(-c3ccc4c(c3)CN(c3cc(C(C)C)ncn3)CCO4)cc2[nH]1`, with 250 to 1000 nM; and `CC1(C)CCc2ncnc(N3CCOc4ccc(-c5cnc(N)c(S(=O)(=O)O)c5)cc4C3)c2C1`, with 50 to 250 nM.

The compound `COc1ccc(-c2ccc3c(c2)CN(c2nc(CN(C)C)nc4c2CC(C)(C)CC4)CCO3)cc1Cl` yielded an IC50 of 250 to 1000 nM. `CCc1ncnc(N2CCOc3ccc(-c4ccc5nc(C)[nH]c5c4)cc3C2)c1C` displayed an IC50 of 50 to 250 nM.

`Cc1nc2ccc(-c3ccc4c(c3)CN(c3ncnc(C)c3CC3CC3)CCO4)cc2[nH]1` displayed an IC50 of 50 to 250 nM. Then `CC1(C)CCc2nc(CC#N)nc(N3CCOc4ccc(-c5cnc6sc(N)nc6c5)cc4C3)c2C1`, with 10 to 50 nM; and `CC1(C)CCc2ncnc(N3CCOc4ccc(-c5ccc6nc(NCCF)[nH]c6c5)cc4C3)c2C1`, with 10 to 50 nM. Consider `Cc1nc2ccc(-c3ccc4c(c3)CN(c3ncnc(C(C)C)c3C)CCO4)cc2[nH]1`, for which the IC50 fell in the range of 50 to 250 nM. Then `CNC(=O)c1ccc(-c2ccc3c(c2)CN(c2nc(CN(C)C)nc4c2CC(C)(C)CC4)CCO3)cc1`, with 50 to 250 nM; and `CCNc1nc2ccc(-c3ccc4c(c3)CN(c3cc(Nc5cccc(OC)c5)ncn3)CCO4)cc2[nH]1`, with 250 to 1000 nM; and `CCCc1nc2ccc(-c3ccc4c(c3)CN(c3ccnc5ccccc35)CCO4)cc2[nH]1`, with 50 to 250 nM.

Consider `Cc1nc2cc(-c3ccc4c(c3)CN(c3nc(CN(C)C)nc(C)c3Cc3ccc(F)cc3)CCO4)ccc2[nH]1`, for which the IC50 was not above 10 nM.

In turn, `CC1(C)CCc2ncnc(N3CCOc4ccc(-c5cnc(N)c(S(=O)(=O)N[C@H]6CCNC6)c5)cc4C3)c2C1` registered an IC50 of 10 to 50 nM.

Source of the values: the Kinase Knowledgebase extract (Sharma et al. 2016).
